Measurements as given in publication PMC5045712 (Bioorganic & medicinal chemistry, 2016).

Assays:
B. anthracis DHOase [1] = target: T1, B. anthracis DHOase (Bacillus anthracis, UniProt Q81WF0); conditions: cited from earlier work
B. anthracis DHOase [2] = target: T1, B. anthracis DHOase; format: binding; conditions: for KD (equilibrium dissociation constant determined by SPR): 25 °C
B. anthracis DHOase [3] = target: T1, B. anthracis DHOase; format: binding
E. coli DHOase = conditions: cited from earlier work
[4] = target: WT-DHOase (B. anthracis DHOase) (Bacillus anthracis, UniProt Q81WF0); format: biochemical
Chain of WT-DHOase (B. anthracis DHOase) (Q81WF0 whole entry, looked up): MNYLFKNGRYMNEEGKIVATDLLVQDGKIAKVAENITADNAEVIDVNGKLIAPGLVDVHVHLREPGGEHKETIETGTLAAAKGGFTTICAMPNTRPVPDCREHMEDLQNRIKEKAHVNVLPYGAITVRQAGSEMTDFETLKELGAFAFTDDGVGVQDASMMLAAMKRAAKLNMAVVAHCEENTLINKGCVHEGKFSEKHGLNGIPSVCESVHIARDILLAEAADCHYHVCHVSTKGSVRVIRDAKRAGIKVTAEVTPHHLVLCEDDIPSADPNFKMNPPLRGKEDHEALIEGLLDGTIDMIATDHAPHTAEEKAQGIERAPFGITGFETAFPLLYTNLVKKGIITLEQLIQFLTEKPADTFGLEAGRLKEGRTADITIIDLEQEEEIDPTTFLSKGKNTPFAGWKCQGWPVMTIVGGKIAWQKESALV

T1 sequence (Q81WF0 whole entry, looked up): as above

SMILES: O=C(O)c1[nH]c(=O)[nH]c(=O)c1F [5-fluoroorotate (FOA), 5-fluoroorotate]
- inhibition of B. anthracis DHOase (B. anthracis DHOase [1]): no inhibition

SMILES: COc1ccc2[nH]c3c(c2c1)CN(C(C)=O)CC3 [Compound 8]
- KD (equilibrium dissociation constant determined by SPR) (B. anthracis DHOase [2]): weaker

SMILES: COc1ccc2[nH]c3c(c2c1)CCNC3(NC#N)SC (stereo not shown) [Compound 7a]
- fold change of KD relative to compound 6 (B. anthracis DHOase [2]): 18 fold

SMILES: CCC(=O)Nc1ccc(OC)cc1OC [Compound 4]
- KD with 1 mM Ca-asp (B. anthracis DHOase [2]): remained the same
- shift in melting temperature (Tm) (B. anthracis DHOase [3]): shows a shift in melting temperature

SMILES: Cc1ccc2[nH]c3c(c2c1)CCNC3 [Compound 6b]
- KD (equilibrium dissociation constant determined by SPR) (B. anthracis DHOase [2]): completely abolished

SMILES: COc1ccc2[nH]c3c(c2c1)CCNC3 [Compound 6a]
- KD with 1 mM Ca-asp (B. anthracis DHOase [2]): not affected
- fold change of KD relative to compound 6 (B. anthracis DHOase [2]): ~ 1.5 fold

SMILES: COc1ccc2[nH]c(CN)cc2c1 [Compound 6c]
- KD (equilibrium dissociation constant determined by SPR) (B. anthracis DHOase [2]): no interaction

SMILES: NC(=O)N[C@@H](CC(=O)O)C(=O)O [Ca-asp, carbamyl-asparate]
- Km (E. coli DHOase): 1700 µM
- kcat (E. coli DHOase): 160 ± 8 s⁻¹
- Km [4]: 112 ± 24 µM
- kcat [4]: 2.1 ± 0.1 s⁻¹

SMILES: Nc1c(C(=O)O)[nH]c(=O)[nH]c1=O [5-aminoorotate (AOA), 5-aminoorotate]
- inhibition of B. anthracis DHOase (B. anthracis DHOase [1]): no inhibition

SMILES: O=C1CC(C(=O)O)NC(=O)N1 (stereo not shown) [DHO, dihydroorotate]
- Km (E. coli DHOase): 80 µM
- kcat (E. coli DHOase): 100 ± 1.6 s⁻¹
- Km [4]: 114 ± 16 µM
- kcat [4]: 1.9 ± 0.1 s⁻¹

SMILES: CSC1(NC#N)NCCc2c1[nH]c1ccc(F)cc21 (stereo not shown) [Compound 7]
- KD with 1 mM Ca-asp (B. anthracis DHOase [2]): unable to be determined
